Holding throughout (type): in vivo
Assay [1] concerns Brachiaria platyphylla (Griseb.) Nash or Urochloa platyphylla (Nash) R.D. Webster (BRAPP). Put plainly: Postemergence foliar-applied herbicidal mixtures, weed control in direct seeded rice (greenhouse). The text has this: (§1) Seeds or nutlets of the desired test plant species were planted in a soil matrix prepared by mixing a loam or sandy loam soil (e.g., 28.6 percent silt, 18.8 percent clay, and 52.6 percent sand, with a pH of about 5.8 and an organic matter content of about 1.8 percent) and calcareous grit in an 80 to 20 ratio. The soil matrix was contained in plastic pots with a volume of 1 quart and a surface area of 83.6 square centimeters (cm^2). When required to ensure good germination and healthy plants, a fungicide treatment and/or other chemical or physical treatment was applied. The plants were grown for 8-22 days in a greenhouse with an approximate 14 h photoperiod which was maintained at about 29° C. during the day and 26° C. during the night. Nutrients (Peters Excel® 15-5-15 5-Ca 2-Mg and iron chelate) were applied in the irrigation solution as needed and water was added on a regular basis. Supplemental lighting was provided with overhead metal halide 1000-Watt lamps as necessary. The plants were employed for testing when they reached the first through fourth true leaf stage.
(§2) Treatments consisted of the acid or esters of 4-amino-3-chloro-5-fluoro-6-(4-chloro-2-fluoro-3-methoxy-phenyl) pyridine-2-carboxylic acid (Compound A), each formulated as an SC (suspension concentrate), and various herbicidal components alone and in combination. Forms of compound A were applied on an acid equivalent basis.
(§3) Other herbicidal components were applied on an active ingredient basis and included cellulose biosynthesis-inhibiting (CBI) herbicides isoxaben formulated as Gallery® 75DF and indaziflam formulated as Specticle® 20WSP.
(§4) Treatment requirements were calculated based upon the rates being tested, the concentration of active ingredient or acid equivalent in the formulation, and a 12 mL application volume at a rate of 187 L/ha.
(§5) For treatments comprised of formulated compounds, measured amounts of compounds were placed individually in 25 mL glass vials and diluted in a volume of 1.25% (v/v) Agri-Dex® crop oil concentrated to obtain 12× stock solutions. […] Application solutions were prepared by adding an appropriate amount of each stock solution (e.g., 1 mL) and diluted to the appropriate final concentrations with the addition of 10 mL of an aqueous mixture of 1.25% (v/v) crop oil concentrate so that the final spray solutions contained 1.25+/−0.05% (v/v) crop oil concentrate.
(§6) All stock solutions and applications solutions were visually inspected for compound compatibility prior to application. Spray solutions were applied to the plant material with an overhead Mandel track sprayer equipped with a 8002E nozzles calibrated to deliver 187 L/ha over an application area of 0.503 m^2 at a spray height of 18 to 20 inches (46 to 50 cm) above average plant canopy height. Control plants were sprayed in the same manner with the solvent blank.
(§7) The treated plants and control plants were placed in a greenhouse as described above and watered by sub-irrigation to prevent wash-off of the test compounds. After approximately 3 weeks, the condition of the test plants as compared with that of the untreated plants was determined visually and scored on a scale of 0 to 100 percent where 0 corresponds to no injury or growth inhibition and 100 corresponds to complete kill.
(§8) Colby's equation was used to determine the herbicidal effects expected from the mixtures (Colby, S. R. 1967. Calculation of the synergistic and antagonistic response of herbicide combinations. Weeds 15:20-22).
(§9) The following equation was used to calculate the expected activity of mixtures containing two active ingredients, A and B: Expected=A+B−(A×B/100)
(§10) A=observed efficacy of active ingredient A at the same concentration as used in the mixture.
(§11) B=observed efficacy of active ingredient B at the same concentration as used in the mixture.

Assay [2] relates to Leptochloa chinensis (L.) Nees (LEFCH). The assay is described as above.
Excerpt: as §1, §2, §3, §4, §5, §6, §7, §8, §9, §10, §11

Assay [3] has as its system Digitaria sanguinalis (L.) Scop. (DIGSA). The description is as above.
Excerpt: as §1, §2, §3, §4, §5, §6, §7, §8, §9, §10, §11

In assay [4] the test system is Xanthium strumarium L. (XANST). Description: Pre-emergence soil-applied herbicidal mixtures for weed control (greenhouse).
Excerpt: (§12) Seeds or nutlets of the desired test plant species were planted in a soil matrix prepared by mixing a loam soil (e.g., 32 percent silt, 23 percent clay, and 45 percent sand, with a pH of about 6.5 and an organic matter content of about 1.9 percent) and calcareous grit in an 80 to 20 ratio. The soil matrix was contained in plastic pots with a volume of 1 quart and a surface area of 83.6 square centimeters (cm^2).
(§13) Treatments consisted of the benzyl ester of 4-amino-3-chloro-5-fluoro-6-(4-chloro-2-fluoro-3-methoxy-phenyl)pyridine-2-carboxylic acid (compound A) formulated as an SC (suspension concentrate) and various herbicidal components alone and in combination. Forms of compound A were applied on an acid equivalent basis.
(§14) Other herbicidal components were applied on an acid equivalent or active ingredient basis and included the cellulose biosynthesis inhibiting herbicides, isoxaben formulated as Gallery® 75DF and indaziflam formulated as Specticle® 20WSP.
as §4
(§15) For treatments comprised of formulated compounds, measured amounts of compounds were placed individually in 25 mL glass vials and diluted in a volume of 1.25% (v/v) Agri-Dex® crop oil concentrate (COC) to obtain 12× stock solutions. […] Application solutions were prepared by adding an appropriate amount of each stock solution (e.g., 1 mL) and diluted to the appropriate final concentrations with the addition of 10 mL of an aqueous mixture of 1.25% (v/v) COC so that the final spray solutions contained 1.25% (v/v) COC.
(§16) All stock solutions and applications solutions were visually inspected for compound compatibility prior to application. Spray solutions were applied to the soil with an overhead Mandel track sprayer equipped with a 8002E nozzles calibrated to deliver 187 L/ha over an application area of 0.503 m^2 at a spray height of 18 inches (46 cm) above average pot height. Control pots were sprayed in the same manner with the solvent blank.
(§17) The treated and control pots were placed in a greenhouse and top watered as needed. When required to ensure good germination and healthy plants, a fungicide treatment and/or other chemical or physical treatment was applied. The pots were maintained in a greenhouse with an approximate 14 hr. photoperiod which was maintained at about 29° C. during the day and 26° C. during the night. Nutrients (Peters® Excel 15-5-15 5-Ca 2-Mg) were applied in the irrigation solution as needed and water was added on a regular basis. Supplemental lighting was provided with overhead metal halide 1000-Watt lamps as necessary. After approximately 4 weeks, the condition of the test plants as compared with that of the untreated plants was determined visually and scored on a scale of 0 to 100 percent where 0 corresponds to no injury or growth inhibition and 100 corresponds to complete kill.
as §8, §9, §10, §11

In assay [5] the test system is Ipomoea hederacea (L.) Jacq. (IPOHE). Described as above.
Excerpt: as §12, §13, §14, §4, §15, §16, §17, §8, §9, §10, §11

In assay [6] the test system is Setaria faberi Herrm. (SETFA). The assay is described as above. Conditions: Indaziflam 95 g ai/ha alone.
Excerpt: as §12, §13, §14, §4, §15, §16, §17, §8, §9, §10, §11

Setting [7] is: Compound A Acid 4.38 g ae/ha alone.
[8] abbreviates: Compound A Acid 5.3 g ae/ha alone.
[9] abbreviates: Compound A Acid 8.75 g ae/ha alone.
Where [10] appears, read: Compound A Acid 10.6 g ae/ha alone.

For the compound `COc1c(Cl)ccc(-c2nc(C(=O)O)c(Cl)c(N)c2F)c1F` [Compound A Acid, 4-amino-3-chloro-6-(4-chloro-2-fluoro-3-methoxyphenyl)-5-fluoropyridine-2-carboxylic acid], the “Visual Weed Control (%) - 20 DAA Obs” value in assay [1] (setting [7]) turned out to be 75%; in assay [1] (setting [9]), 80%; in assay [2] (setting [7]), 15%; in assay [3] (setting [9]), 45%; in assay [3] (Compound A Acid 17.5 g ae/ha alone), 50%. Besides, the “Visual Weed Control (%) - 21 DAA Obs” value in assay [1] (setting [8]) is 60%; in assay [1] (setting [10]) it was 85%; in assay [3] (setting [8]) it was 20%; in assay [3] (setting [10]) it was 30%; in assay [3] (Compound A Acid 21.2 g ae/ha alone), 35%.

Turning to `Cc1ccc2c(c1)[C@H](Nc1nc(N)nc(C(C)F)n1)[C@@H](C)C2` (stereo partly drawn) [Indaziflam, N-[(1R,2S)-2,3-dihydro-2,6-dimethyl-1H-inden-1-yl]-6-(1-fluoroethyl)-1,3,5-triazine-2,4-diamine, reference compound], the “Visual Weed Control (%) - 28 DAA XANST Obs” value is 25% in assay [4] (Indaziflam 17.5 g ai/ha alone) and 45% in assay [4] (Indaziflam 70 g ai/ha alone). The “Visual Weed Control (%) - 28 DAA IPOHE Obs” value in assay [5] (Indaziflam 17.5 g ai/ha alone) and in assay [5] (Indaziflam 70 g ai/ha alone) was 40% throughout. Also, the “Visual Weed Control (%) - 27 DAA SETFA Obs” value in assay [6] is listed as 70%. Also, the “Visual Weed Control (%) - 21 DAA Obs” value in assay [1] (Indaziflam 21 g ai/ha alone) is 0%; in assay [1] (Indaziflam 42 g ai/ha alone), 15%; in assay [2] (Indaziflam 42 g ai/ha alone) it was 70%; in assay [3] (Indaziflam 21 g ai/ha alone), 50%; in assay [3] (Indaziflam 42 g ai/ha alone), 45%.

The values above are taken from patent publication US8901035B2, “Herbicidal compositions comprising 4-amino-3-chloro-5-fluoro-6-(4-chloro-2-fluoro-3-methoxyphenyl) pyridine-2-carboxylic acid or a derivative thereof and cellulose biosynthesis inhibitor herbicides” (Dow AgroSciences LLC, priority 2012, dated 2014).
